The results in this text go back to patent US20100016293A1, “Quinazolines and Related Heterocyclic Compounds, and Their Therapeutic Use” (priority 2006, published 2010).

Each structure is given as a SMILES string.

In this assay the target is T1, human H4 receptor (Homo sapiens, UniProt Q9H3N8).
T1 construct: expressed in transfected cells; host or cells: HEK 293T cells, transient transfection with polyethyleneimine
T1 sequence (Q9H3N8 whole entry): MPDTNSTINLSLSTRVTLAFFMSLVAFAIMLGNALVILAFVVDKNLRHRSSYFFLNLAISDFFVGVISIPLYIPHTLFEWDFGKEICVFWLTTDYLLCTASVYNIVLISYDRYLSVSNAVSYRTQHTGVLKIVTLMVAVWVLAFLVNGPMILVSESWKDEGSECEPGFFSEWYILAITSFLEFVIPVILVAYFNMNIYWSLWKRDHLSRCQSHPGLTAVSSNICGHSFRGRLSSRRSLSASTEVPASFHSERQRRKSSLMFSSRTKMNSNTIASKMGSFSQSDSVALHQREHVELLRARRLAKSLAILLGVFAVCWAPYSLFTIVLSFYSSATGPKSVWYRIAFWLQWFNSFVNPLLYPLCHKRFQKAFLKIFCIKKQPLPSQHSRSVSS
Briefly: Radioligand displacement studies at the human H4 receptor ([3H]histamine). It counts as binding. To be noted: [3H]histamine displacement, membranes of HEK 293T cells transfected with human H4R, 1 hour at 22° C. The procedure:
Radioligand displacement studies at the human H4 receptor were conducted. […] Approximately 4 million cells were seeded in a 10-cm dish and cultured overnight before transfection. For transfection of each dish of cells, the transfection mixture was prepared in 1 ml serum-free DMEM and contained 5 μg of human H4R receptor plasmid and 15 μl of 1 mg/ml 25 kDa linear polyethyleneimine (Polyscience, Inc., USA). The mixture was incubated for 10-15 minutes at room temperature before it was added into the monoloyer cell culture loaded with 5 ml fresh cell culture medium. Two days after transfection the cells were washed with PBS containing 1 mM EDTA, collected as pellet by centrifuging, and stored at −20° C. until use.
For the radioligand binding study, pellets of transfected cells were homogenized in H4R binding buffer (100 mM Tris-HCl, pH 7.4). For displacement binding assays, the membranes were typically incubated with 10^−4 to 10^−11 M of ligands (stock concentration was 10 mM 1 DMSO) in the presence of [^3H]histamine (Perkin-Elmer Life Science, Inc., USA) in a total volume of 200 μl. The reaction mixtures were incubated for 1 hour at room temperature (22° C.), and harvested on 96-well glass fiber C plates that were pretreated with 0.3% 750 kDa PEI. The binding assay data were analyzed using Prism 4.0 (Graphpad Software Inc., USA).
A general note: Loss of bound radioactivity is the signal in a displacement assay; it reports binding, not function.
In the case of `CN1CCN(c2ccc3cc(Cl)ccc3n2)CC1` [VUF6959, 6-Chloro-2-(4-methyl-piperazinyl)-quinoline], the Ki (commonly the equilibrium dissociation constant of an inhibitor or competing ligand from its target) was less than 1000 nM.

The molecule `CCOC(=O)CNc1nc(N2CCN(C)CC2)nc2ccc(Cl)cc12` [VUF10456, Ethyl 2-(6-chloro-2-(4-methylpiperazin-1-yl)quinazolin-4-ylamino)acetate] yielded a Ki of less than 1000 nM.

As for `COc1ccc(CNc2nc(N3CCN(C)CC3)nc3ccc(Cl)cc23)cc1` [VUF10505, 6-Chloro-N-(4-methoxybenzyl)-2-(4-methylpiperazin-1-yl)quinazolin-4-amine], the Ki was less than 1000 nM.

`CN1CCN(c2nc(NCCc3ccc([N+](=O)[O-])cc3)c3cc(Cl)ccc3n2)CC1` [VUF10506, 6-Chloro-2-(4-methylpiperazin-1-yl)-N-(4-nitrophenethyl)quinazolin-4-amine]: the Ki is less than 1000 nM.

For the molecule `CN1CCN(c2nc(NCc3ccc(N)cc3)c3cc(Cl)ccc3n2)CC1` [VUF10509, N-(4-aminobenzyl)-6-chloro-2-(4-methylpiperazin-1-yl)quinazolin-4-amine], the Ki was less than 1000 nM.

Molecule `CN1CCN(c2nc(NCc3ccc(F)cc3)c3cc(Cl)ccc3n2)CC1` [VUF10513, 6-Chloro-N-(4-fluorobenzyl)-2-(4-methylpiperazin-1-yl)quinazolin-4-amine] gave a Ki of less than 1000 nM.

In turn, `CN1CCN(c2nc(NCc3ccc(C#N)cc3)c3cc(Cl)ccc3n2)CC1` [VUF10553, 4-((6-Chloro-2-(4-methylpiperazin-1-yl)quinazolin-4-ylamino)methyl)benzonitrile] registered a Ki of less than 1000 nM.
